Measured values taken from paper PMC10190849, “Rationally designed modular drug delivery platform based on intracellular peptide self‐assembly” (Exploration, 2021).
No end group written: not given here. *: point of attachment. FITC = O=C1OC2(c3ccc(O)cc3Oc3cc(O)ccc32)c2ccc(NC(=S)*)cc21

What was measured:
[1] = system: XIAP positive cell lines (H460, 786-O, EJ, RT112); assay: CLSM imaging of cells coincubated with MDS molecules, XIAP positive cell lines; assay type: cell-based; settings: 50 μM, 37 °C, 1 h, PBS washing
From the text: (§1) Drug delivery efficacy is one of the decisive factors for evaluating the drug delivery systems.
In order to evaluate the drug delivery efficacy, we directly observed the Py fluorescence by CLSM imaging. […] In addition, we performed the cell section analysis and directly observed the morphology of assemblies intracellularly (Figure 8D). The intracellular formed nanofibers confirmed the controllable in situ assembly of MDS. All those results verified that the drug delivery system was feasible for highly efficient drug delivery.
Cell culturing and CLSM imaging: H460, 786-O, L929 cell lines and EJ, RT112 cell lines were cultured in PRMI-1640 and DMEM respectively with 10% (v: v) fetal bovine serum, 1% penicillin–streptomycin in an incubator (Thermo Scientific) at 37 °C with 5% CO2 and 95% relative humidity. For observing the selectivity of MDS by CLSM imaging, all the cell lines were seeded with 1 x 10^5 cells per well, and cultured for 24 h, the cells were incubated with 50 μM Pβ-R4C and Pβ-R4F respectively at 37 °C for 1 h and followed by PBS washing. Subsequently, the cells were stained with Hoechst 33342 (1 mg ml^-1) at 37 °C for 10 min. Finally, the cells were washed by PBS twice and immediately observed under confocal laser scanning microscopy. […]

[2] = system: XIAP negative cell line L929; assay: CLSM imaging of cells coincubated with MDS molecules, XIAP negative cell line; assay type: cell-based; settings: 50 μM, 37 °C, 1 h, PBS washing
Description: as §1
Cell culturing and CLSM imaging: H460, 786-O, L929 cell lines and EJ, RT112 cell lines were cultured in PRMI-1640 and DMEM respectively with 10% (v: v) fetal bovine serum, 1% penicillin–streptomycin in an incubator (Thermo Scientific) at 37 °C with 5% CO2 and 95% relative humidity. For observing the selectivity of MDS by CLSM imaging, all the cell lines were seeded with 1 x 10^5 cells per well, and cultured for 24 h, the cells were incubated with 50 μM Pβ-R4C and Pβ-R4F respectively at 37 °C for 1 h and followed by PBS washing. Subsequently, the cells were stained with Hoechst 33342 (1 mg ml^-1) at 37 °C for 10 min. Finally, the cells were washed by PBS twice and immediately observed under confocal laser scanning microscopy. For observing the selective drug accumulation by CLSM imaging, the H460 cell and L929 cells were seeded with 1 x 10^5 cells per well, and cultured for 24 h, then cells were incubated with 50 μM Pβ-R4C-D for 1 h, followed by PBS washing and observed by CLSM.

[3] = TEM imaging of assembled morphology and diameters; assay type: physicochemical; settings: result in words
From the text: To further confirm our speculation, we observe the assembled morphology of these molecules under its CAC concentrations. […] As those results indicated, the modification position of fluorescence molecules largely influenced the dispersity of designed molecules. […] As a threshold, the %SASA value around 75% distinguishes between assembly and soluble states. Thus, the optimal choice for modification position is decisive in %SASA regulation for successful molecular design.
In order to achieve a highly ordered superstructure in vivo, it is necessary to transfer the precursor with higher CAC content to the monomer with lower CAC content at the desired position under the trigger of some chemical reactions. In this work, the pre‐designed molecules trigger the conversion of precursors to monomers transformation through enzyme‐directed hydrolysis, and the substrate (DEVD) was cleaved by caspase 3/7. Due to the increased hydrophobicity and conformational changes, the resultant product further self‐assembled into the required superstructure. The previous study in this work confirmed five molecules with higher dispersity (Pβ‐R4C, Pα‐R4C, Pβ‐R4F, Pβ‐R4P, Pβ‐R4C‐D). Here, we studied the self‐assembly properties of […] related residues of these highly soluble molecules (R‐R4C, R‐R4F, R‐R4P, R‐R4C‐D).^[ [21] ^] […]

[4] = ThT (Thioflavin T) assay, critical aggregation/assembly concentration and dispersibility; assay type: physicochemical; settings: dose dependent assembling profile after incubation with ThT, Figure 3A
Description: For intracellular self-assembly, the rapid transformation from dispersed state to aggregate state in desired site is required. In other words, the molecules need to be stable monomeric states at other locations and present self-assembled states at the required locations. Therefore, location-specific self-assembly characteristics are the decisive factors for the success of molecular design. […] Then, different modification on four domains were carried out to evaluate its dispersity and self-assembly properties. We carried out ThT (Thioflavin T) analytic assay to evaluate whether those predesigned molecules presented relatively dispersed state. ThT is a sensitive probe to the lamellar β-sheet structure. When exposed to the lamellar β-sheet structure, ThT fluorescence was enhanced due to inserting into the lamellar structure.^[ [17] ^] […] In order to validate our hypophysis and quantitively determine the solubility of those molecules, we calculated the critical assembly concentration (CAC) of those molecules based on the ThT analysis. […] However, other molecules with R4 domain modifications all presented a higher CAC with ≥400 μM. […] ThT assay: the ThT assay was utilized to calculate the critical assembling concentration. […] Next, the fluorescence of ThT was measured with the excitation wavelength with 450 nm. Finally, the fluorescence intensity was recorded and normalized.

| assembled morphology (TEM) [3] | molecular concentration at which ThT fluorescence obviously increased [4] [µM] | Substance | fluorescent signal in cells (CLSM) [1] | fluorescent signal in cells (CLSM) [2] |
| --- | --- | --- | --- | --- |
|  |  | AVPIAQKDEVDKLVFFAEC(FITC)G [Pβ-R4F, Pβ with FITC in R4 domain] | strong Cy and FITC fluorescent signal | No obvious fluorescent signal |
|  |  | AVPIAQKDEVDKLVFFAEC(Cy)G [Pβ-R4C, Pβ with fluorescent molecule Cy linked in R4 domain] | strong Cy and FITC fluorescent signal | No obvious fluorescent signal |
| nanofibrous structures | 200 | AVPIAQKDEVDGC(Cy)KLVFFAEG [Pβ-R2C, Pβ with GC on R2 domain conjugated with Cy] |  |  |
